Experimental data as given in US8129355B2, “Ketone ligands for modulating the expression of exogenous genes via an ecdysone receptor complex” (priority 2002, dated 2012).
Where two headings read alike, the source gives them in different places.

Columns and labels:
[1] = molecular target: T1, GAL4 DBD-CfEcR(DEF)/VP16AD-MmRXRE (Choristoneura fumiferana, UniProt O77240); test: cell-based
T1 sequence (O77240 1-513): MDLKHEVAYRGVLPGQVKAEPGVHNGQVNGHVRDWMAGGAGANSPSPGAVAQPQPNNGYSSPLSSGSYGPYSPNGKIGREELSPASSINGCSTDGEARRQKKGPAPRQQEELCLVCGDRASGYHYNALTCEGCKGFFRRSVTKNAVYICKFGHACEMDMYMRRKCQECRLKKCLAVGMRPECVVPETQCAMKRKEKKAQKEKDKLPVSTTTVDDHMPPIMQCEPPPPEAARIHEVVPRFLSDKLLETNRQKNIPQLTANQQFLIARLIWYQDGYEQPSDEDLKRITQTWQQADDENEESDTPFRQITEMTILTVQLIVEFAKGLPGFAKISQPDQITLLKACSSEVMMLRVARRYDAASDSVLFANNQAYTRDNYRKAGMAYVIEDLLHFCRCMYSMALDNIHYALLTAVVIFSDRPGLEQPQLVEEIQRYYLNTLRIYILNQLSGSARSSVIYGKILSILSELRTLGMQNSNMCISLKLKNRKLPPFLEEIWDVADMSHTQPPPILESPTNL
Text: GAL4 DBD-CfEcR(DEF)/VP16AD-MmRXRE: The wild-type D, E, and F domains from spruce budworm Choristoneura fumiferana EcR (“CfEcR-DEF”; SEQ ID NO: 1) were fused to a GAL4 DNA binding domain (“Gal4 DBD1-147”; nucleotides 31 to 471 of SEQ ID NO: 2) and placed under the control of the SV40e promoter of pM vector (PT3119-5, Clontech, Palo Alto, Calif.). The D and E domains from Mus Musculus RXR (“MmRXR-DE”; SEQ ID NO: 10) were fused to the transactivation domain from VP16 (“VP16AD”; SEQ ID NO: 5) and placed under the control of the SV40e promoter of the pVP16 vector (PT3127-5, Clontech, Palo Alto, Calif.).
CHO cells were transienty transfected with transcription cassettes for GAL4 DBD-CfEcR(DEF) and for VP16AD-MmRXRE controlled by SV40e promoters. Stably transfected cells were selected using Hygromycin. Individually isolated CHO cell clones were transiently transfected with a GAL4 RE-luciferase reporter (pMR-Luc, Stratagene, La Jolla, Calif.). The 13B3 clone was selected using Zeocin.
Cells were trypsinized and diluted to a concentration of 2.5×10^4 cells mL. 100 μL of cell suspension was placed in each well of a 96 well plate and incubated at 37° C. under 5% CO2 for 24 h. Ligand stock solutions were prepared in DMSO and diluted 300 fold for all treatments. Dose response testing consisted of 8 concentrations ranging from 33 μM to 0.01 μM.
Luciferase reporter gene expression was measured 48 h after cell treatment using Bright-Glo™ Luciferase Assay System from Promega (E2650). Luminescence was detected at room temperature using a Dynex MLX microtiter plate luminometer.
Fold inductions were calculated from single dose testing by dividing relative light units (RLU) in ligand treated cells by RLU in DMSO treated cells. BC50s were calculated from dose response data using a three-parameter logistic model.

[2] = molecular target: T2, Bombyx mori EcR (VP16 fusion, switch construct CVBE) with 6XEcRE LacZ reporter (Bombyx mori, UniProt P49881); test: Z3 assay: β-galactosidase (LacZ) reporter gene fold induction in stably transformed human 293 kidney cells (clone Z3); format: cell-based; conditions: for Fold Induction Average, Z3 Assay (33 μM): single dose 33 μM, ligand treated / DMSO treated cells
T2 construct: expressed in transfected cells; host or cells: Human 293 kidney (HEK-293) cells, retrovirally infected, clone Z3
T2 sequence (P49881 86-606 limits assumed): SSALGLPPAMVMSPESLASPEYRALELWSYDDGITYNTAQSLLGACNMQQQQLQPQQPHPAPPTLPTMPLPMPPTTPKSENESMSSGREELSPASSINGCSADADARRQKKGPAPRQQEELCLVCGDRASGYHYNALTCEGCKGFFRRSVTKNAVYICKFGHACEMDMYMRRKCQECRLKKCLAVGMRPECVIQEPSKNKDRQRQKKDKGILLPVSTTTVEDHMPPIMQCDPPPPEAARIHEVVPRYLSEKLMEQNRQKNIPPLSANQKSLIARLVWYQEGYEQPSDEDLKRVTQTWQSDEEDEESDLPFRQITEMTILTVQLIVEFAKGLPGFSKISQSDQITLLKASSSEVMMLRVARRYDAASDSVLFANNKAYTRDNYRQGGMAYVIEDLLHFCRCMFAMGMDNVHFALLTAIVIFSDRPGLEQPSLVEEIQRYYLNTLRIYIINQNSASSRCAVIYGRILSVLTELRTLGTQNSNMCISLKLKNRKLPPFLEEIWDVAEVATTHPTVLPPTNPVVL
T2 sequence (P19793 1-462 partner): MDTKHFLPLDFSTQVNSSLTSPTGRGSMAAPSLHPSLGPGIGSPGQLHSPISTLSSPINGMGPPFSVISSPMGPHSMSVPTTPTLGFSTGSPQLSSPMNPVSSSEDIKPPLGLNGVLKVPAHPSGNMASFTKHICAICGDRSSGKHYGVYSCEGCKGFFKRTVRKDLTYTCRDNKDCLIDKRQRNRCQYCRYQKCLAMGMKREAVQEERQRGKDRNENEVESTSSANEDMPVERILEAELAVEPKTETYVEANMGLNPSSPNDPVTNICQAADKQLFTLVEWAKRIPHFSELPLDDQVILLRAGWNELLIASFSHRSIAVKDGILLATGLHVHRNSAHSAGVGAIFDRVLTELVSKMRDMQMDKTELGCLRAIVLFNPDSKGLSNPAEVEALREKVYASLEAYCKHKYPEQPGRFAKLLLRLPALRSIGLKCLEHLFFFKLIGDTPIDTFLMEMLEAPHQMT
Text: Dr. F. Gage provided a population of stably transformed cells containing CVBE and 6XEcRE as described in Suhr, S. T., Gil, E. B., Senut M. C., Gage, F. H. (1998) Proc. Natl. Acad. Sci. USA 95, 7999-804. Human 293 kidney cells, also referred to as HEK-293 cells, were sequentially infected with retroviral vectors encoding first the switch construct CVBE, and subsequently the reporter construct 6XEcRE Lac Z. The switch construct contained the coding sequence for amino acids 26-546 from Bombyx mori EcR (BE) (Iatrou) inserted in frame and downstream of the VP16 transactivation domain (VBE). A synthetic ATG start codon was placed under the control of cytomegalovirus (CVBE) immediate early promoter and flanked by long terminal repeats (LTR). The reporter construct contained six copies of the ecdysone response element (EcRE) binding site placed upstream of LacZ and flanked on both sides with LTR sequences (6XEcRE).
Dilution cloning was used to isolate individual clones. Clones were selected using 450 ug/mL G418 and 100 ng/mL puromycin. Individual clones were evaluated based on their response in the presence and absence of test ligands. Clone Z3 was selected for screening and SAR purposes.
Human 293 kidney cells stably transformed with CVBE and 6XEcRE lack were maintained in Minimum Essential Medium (Mediates, 10-010-CV) containing 10% FBS (Life Technologies, 26140-087), […] G418 (Mediates, 30-234-CR), and […] (Sigma, P-7255), at 37° C. in an atmosphere containing 5% CO2 and were subculture when they reached 75% confluence.
Z3 cells were seeded into 96-well tissue culture plates at a concentration of 2.5×10^3 cells per well and incubated at 37° C. in 5% CO2 for twenty-four hours. Stock solutions of ligands were prepared in DMSO. Ligand stock solutions were diluted 100 fold in media and 50 μL of this diluted ligand solution (33 μM) was added to cells. The final concentration of DMSO was maintained at […] in both controls and treatments.
Reporter gene expression was evaluated 48 hours after treatment of cells, β-galactosidase activity was measured using Gal Screen™ bioluminescent reporter gene assay system from Tropix (GSY1000).
Flanking both constructs are long terminal repeats, G418 and puromycin are selectable markers, CMV is the cytomegalovirus promoter, VBE is coding sequence for amino acids 26-546 from Bombyx mori EcR inserted downstream of the VP16 transactivation domain, 6×EcRE is six copies of the ecdysone response element, lacZ encodes for the reporter enzyme β-galactosidase. Suhr, S. T., Gil, E. B., Senut M. C., Gage, F. H. (1998) Proc. Natl. Acad. Sci. USA 95, 7999-804. Swevers, L., Drevet, J. R., Lunke, M. D., Iatrou, K. (1995) Insect Biochem. Mol. Biol. 25, 857-866.

| SMILES | Fold Induction Average, 13B3 Assay (33 μM) [1] | Fold Induction Average, Z3 Assay (33 μM) [2] | Fold Induction Average, 13B3 Assay (33 μM) ([1]; single dose 33 μM, RLU ligand treated / RLU DMSO treated cells) | CC50 ([2]; average, dose response, three-parameter logistic model, read-out: Z3 LC50) [nM] | Z3 Rel Max FI ([2]; maximum fold induction at any concentration relative to that of GS-E ligand) |
| --- | --- | --- | --- | --- | --- |
| COc1cccc(C(=O)NC2(C(=O)c3cccc(C)c3)CCC(=O)CC2)c1C [Example 61] | 0 | 102 |  |  |  |
| CC(=O)NC(C(=O)c1ccc(C)cc1)c1ccccc1 (stereo not drawn) [Example 92] | 0 | 1 |  |  |  |
| CC(=O)NC(C(=O)c1ccccc1)c1ccc(C)cc1 (stereo not drawn) [Example 93] | 0 | 1 |  |  |  |
| CC(=O)NC(C(=O)c1ccccc1)c1ccccc1 (stereo not drawn) [Example 94] | 1 | 1 |  |  |  |
| CC(C)(NC(=O)c1ccc(Cl)cc1)C(=O)c1ccccc1 [Example 95] |  | 4 | 1 | 820 | 2.27 |
| Cc1ccc(C(=O)NC(C(=O)c2ccccc2)C(C)(C)C)cc1 (stereo not drawn) [Example 96] | 0 | 1 |  |  |  |
| Cc1cccc(C(=O)NC(C(=O)c2ccccc2)C(C)(C)C)c1C (stereo not drawn) [Example 97] | 0 | 1 |  |  |  |
| CC(C)(C)C(NC(=O)c1ccc([N+](=O)[O-])cc1)C(=O)c1ccccc1 (stereo not drawn) [Example 98] | 0 | 1 |  |  |  |
| COc1cccc(C(=O)C2(NC(=O)c3cccc(OC)c3C)CC2)c1 [Example 99] | 0 | 1 |  |  |  |
| COc1cccc(C(=O)C(C)(Cc2ccccc2)NC(=O)c2cccc(OC)c2C)c1 (stereo not drawn) [Example 100] | 0 | 2 |  |  |  |
| COc1cccc(C(=O)NC2(C(=O)c3ccccc3C)CC2)c1C [Example 101] | 2 | 2 |  |  |  |
| Cc1c(C(=O)NC2(C(=O)c3ccccc3)CCCC2)oc2ccccc12 [Example 102] | 1 | 1 |  |  |  |
| CC(C)(NC(=O)c1ccccc1)C(=O)c1ccccc1 [Example 104] | 0 | 1 |  |  |  |
| Cc1ccccc1C(=O)NC(C)(C)C(=O)c1ccccc1 [Example 105] | 3 | 1 |  |  |  |
| CC(C)(NC(=O)c1ccc2c(c1)OCO2)C(=O)c1ccccc1 [Example 106] | 3 | 1 |  |  |  |
| COc1cccc(C(=O)NC(C)(C)C(=O)c2ccccc2)c1 [Example 107] | 2 | 1 |  |  |  |
| CCc1ccc(C(=O)NC(C)(C)C(=O)c2ccccc2)cc1 [Example 108] | 1 | 2 |  |  |  |
| COc1cccc(C(=O)NC2(C(=O)c3cccc(C)c3)CCN(C(=O)OC(C)(C)C)CC2)c1C [Example 109] | 0 | 3 |  |  |  |
| COc1cccc(C(=O)NC2(C(=O)c3cc(C)cc(C)c3)CCN(C(=O)OC(C)(C)C)CC2)c1C [Example 110] | 2 | 1 |  |  |  |
| COc1cccc(C(=O)NC(C)(C(=O)c2ccc3c(c2)OCO3)C(C)C)c1C (stereo not drawn) [Example 111] | 0 | 1 |  |  |  |
| COc1cccc(C(=O)NC(C)(C(C)=O)C(C)C)c1C (stereo not drawn) [Example 112] | 2 | 1 |  |  |  |
| COc1cccc(C(=O)NC(C(=O)c2cccc(C)c2)C(C)(C)C)c1C (stereo not drawn) [Example 113] | 1 | 4 |  |  |  |
| COc1cccc(C(=O)C(NC(=O)c2cccc(OC)c2C)C(C)(C)C)c1 (stereo not drawn) [Example 114] | 2 | 3 |  |  |  |
| COc1cccc(C(=O)NC(C(=O)c2cc(C)cc(C)c2)C(C)(C)C)c1C (stereo not drawn) [Example 115] | 1 | 15 |  |  |  |
| COc1ccccc1C(=O)NC(C)(C)C(=O)c1cccc(C)c1 [Example 116] | 4 | 1 |  |  |  |
| COc1ccc(C(=O)C(C)(CC(C)C)NC(=O)c2cccc(OC)c2C)cc1 (stereo not drawn) [Example 118] | 0 | 1 |  |  |  |
